pKd, pKi: −log10 of the molar value. Bounds are passed on as bounds.

This is an account of results in ChEMBL document CHEMBL1151734, “Cytochrome P450 2C9 type II binding studies on quinoline-4-carboxamide analogues” (J Med Chem, 2008).

In test [1] the target is T1, Cytochrome P450 2C9 (Homo sapiens, UniProt P11712). In words: Inhibition of reconstituted CYP2C9. The format is ADME.
In test [2] the target is T1, Cytochrome P450 2C9. Put plainly: Binding affinity to CYP2C9 assessed as spectral dissociation constant.
The target of test [3] is T1, Cytochrome P450 2C9. In words: Inhibition of purified CYP2C9.

T1 sequence (P11712 whole entry): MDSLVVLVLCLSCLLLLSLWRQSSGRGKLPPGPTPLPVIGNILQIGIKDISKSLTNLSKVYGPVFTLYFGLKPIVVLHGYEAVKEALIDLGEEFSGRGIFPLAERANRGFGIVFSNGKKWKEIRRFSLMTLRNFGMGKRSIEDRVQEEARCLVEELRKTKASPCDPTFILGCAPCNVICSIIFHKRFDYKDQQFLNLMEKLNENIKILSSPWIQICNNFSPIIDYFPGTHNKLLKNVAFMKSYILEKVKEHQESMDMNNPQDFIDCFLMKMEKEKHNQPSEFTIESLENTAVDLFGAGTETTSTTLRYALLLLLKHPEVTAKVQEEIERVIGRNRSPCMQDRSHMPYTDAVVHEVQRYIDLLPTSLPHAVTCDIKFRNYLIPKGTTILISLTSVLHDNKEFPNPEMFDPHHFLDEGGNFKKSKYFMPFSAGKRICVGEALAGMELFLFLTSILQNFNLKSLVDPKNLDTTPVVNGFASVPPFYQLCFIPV

A word on the pKi: it is −log10 of the Ki, conventionally taken in molar units. Read a low pKi as a large Ki. Regarding `O=C(c1cc(-c2ccncc2)nc2ccccc12)N1CCC(N2CCCC2)CC1`, the pKi in test [1] is 5.44.

`O=C(c1cc(-c2cccnc2)nc2ccccc12)N1CCC(N2CCCC2)CC1` showed a pKi in test [1] of 4.62.

As usually defined, the pKd is the Kd on a negative log10 scale, so that one unit is a factor of ten. Regarding `O=C(NCc1cccc2ccccc12)c1cc(-c2ccncc2)nc2ccccc12`, the pKi in test [1] is 6.90; in test [3], 6.95. The pKd in test [2] is 5.89.

`O=C(Nc1ccc2ccccc2c1)c1cc(-c2ccncc2)nc2ccc(Br)cc12`: the pKi in test [1] is 8.05.

On to `O=C(Nc1ccc2ccccc2c1)c1cc(-c2ccncc2)nc2ccc(Cl)cc12`, for which the pKi in test [1] was 7.92.

In test [1], `O=C(Nc1ccc2ccccc2c1)c1cc(-c2ccccn2)nc2ccccc12` gave a pKi of 4.97.

In turn, `O=C(Nc1ccc2ccccc2c1)c1cc(-c2cccnc2)nc2ccc(Br)cc12` gave a pKi in test [1] of less than 4.42.

On to `O=C(Nc1ccc2ccccc2c1)c1cc(-c2cccnc2)nc2ccc(Cl)cc12`, for which the pKi in test [1] was 5.72.

Turning to `O=C(Nc1ccc2ccccc2c1)c1cc(-c2ccncc2)nc2ccccc12`, the pKi in test [1] was 7.48.

`O=C(Nc1ccccc1)c1cc(-c2ccccn2)nc2ccccc12` showed a pKi in test [1] of 5.46.

In test [1], `O=C(Nc1ccccc1)c1cc(-c2cccnc2)nc2ccccc12` gave a pKi of 5.39.

`Cc1cc(C)c2nc(-c3ccccn3)cc(C(=O)Nc3ccc4ccccc4c3)c2c1` had a pKi in test [1] of less than 4.69.

With `Cc1cc(C)c2nc(-c3ccncc3)cc(C(=O)Nc3ccc4ccccc4c3)c2c1`, in test [1], the pKi is 7.96.

Compound `O=C(NCc1cccc2ccccc12)c1cc(-c2ccccn2)nc2ccccc12` had a negative-log Ki (pKi) in test [1] of less than 4.36.

Compound `O=C(Nc1cccc2ccccc12)c1cc(-c2cccnc2)nc2ccccc12` had a pKi in test [1] of 5.90.

Turning to `O=C(c1cc(-c2cccnc2)nc2ccccc12)N1CCCCC1`, the negative-log Ki (pKi) in test [1] was 5.01.

`O=C(Nc1ccccc1)c1cc(-c2ccncc2)nc2ccccc12`: in test [1], the negative logarithm of the Ki (pKi) was 7.00. For the same compound, in test [2], the pKd is 6.49.

In test [1], `O=C(c1cc(-c2ccccn2)nc2ccccc12)N1CCC(N2CCCC2)CC1` gave a pKi of 4.12.

Turning to `O=C(Nc1ccc2ccccc2c1)c1cc(-c2cccnc2)nc2ccccc12`, in test [1], the pKi is 5.94.

`O=C(c1cc(-c2ccncc2)nc2ccccc12)N1CCCCC1` showed a pKi in test [1] of 5.00.

For the compound `O=C(NCc1cccc2ccccc12)c1cc(-c2cccnc2)nc2ccccc12`, the pKi in test [1] is 6.82.

With `Cc1cc(C)c2nc(-c3cccnc3)cc(C(=O)Nc3ccc4ccccc4c3)c2c1`, the pKi in test [1] is 5.07.

For `O=C(Nc1cccc2ccccc12)c1cc(-c2ccccn2)nc2ccccc12`, the pKi in test [1] is 5.88.

For `O=C(c1cc(-c2ccccn2)nc2ccccc12)N1CCCCC1`, the pKi in test [1] was 4.63.
